The values that follow come from ChEMBL document CHEMBL1157876, “Isomeric tropane alkaloids from the aerial parts of Schizanthus tricolor” (J Nat Prod, 2010).

In one data set the test system is Plasmodium falciparum. Description: Antimalarial activity against chloroquine and pyrimethamine-resistant Plasmodium falciparum K1 infected in human erythrocytes after 72 hrs by spectrophotometry based Malstat method. It counts as functional, organism-based. The following applies: K1, 72 h.
Data set [1] is described as follows: Cytotoxicity against human MRC5 SV2 cells after 72 hrs by resazurin dye reduction assay. The data set is classed as cell-based.

In general, IC50 refers to the concentration that inhibits the measured activity by half. What is called CC50 is the concentration that lowers cell viability or growth by half. A low value points to greater toxicity to the cells.

Turning to `COC(=O)/C(C)=C/C(=O)O[C@@H]1C[C@H]2C[C@H](OC(=O)C=C(C)C)[C@H](C1)N2C`, the 50% inhibitory concentration (IC50) in the data set with Plasmodium falciparum was determined as 63.5 µM.
As for `C=C(CC(=O)O[C@@H]1C[C@H]2C[C@H](OC(=O)C=C(C)C)[C@H](C1)N2C)C(=O)OC`, the CC50 at 72 h in data set [1] is greater than 64 µM. Moreover, in the data set with Plasmodium falciparum, the half-inhibitory concentration (IC50) stood at 22.8 µM.
For `C/C=C(/C)C(=O)O[C@H]1C[C@@H]2C[C@@H](OC(=O)/C=C(\C)C(=O)OC)C[C@@H]1N2C`, in data set [1], the 50% cytotoxic concentration (CC50) at 72 h is greater than 64 µM. The same molecule showed an IC50 in the data set on Plasmodium falciparum of 24.8 µM.
Molecule `C/C=C(\C)C(=O)O[C@H]1C[C@@H]2C[C@@H](OC(=O)/C=C(\C)C(=O)OC)C[C@@H]1N2C` had a CC50 at 72 h in data set [1] greater than 64 µM. This molecule registered a concentration for half-maximal inhibition (IC50) in the data set with Plasmodium falciparum of 36 µM.
Take `CCN(CC)Cc1cc(Nc2ccnc3cc(Cl)ccc23)ccc1O`: the 50% inhibitory concentration (IC50) in the data set on Plasmodium falciparum was less than 0.25 µM.
